From US10363239B2, “Method for inhibiting growth of cancer cells” (Pain Therapeutics, Inc., priority 2013, dated 2019)
Read-outs that look alike come from different tables or passages of the source.

Assays:
[1] = target: FLNA pentapeptide of SEQ ID NO: 1 (Bn-VAKGL) (Homo sapiens, UniProt P21333); experiment: FITC-NLX-based FLNA screening assay (inhibition of FITC-naloxone binding to Bn-VAKGL on streptavidin plates); details: 10 nM FITC-NLX
[2] = tested on: mu opiate receptor (MOR); experiment: MOR agonist activity using [35S]GTPγS binding assay in striatal membranes; assay type: biochemical; details: for MOR agonist activity ([35S]GTPγS binding), FLNA-Binding Compound as Agonist 1 μM + BFNA: 1 μM compound + 1 μM β-funaltrexamine
Outline: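 Striatal membranes (200 μg) were preincubated 5 min at 30 °C in HEPES pH 7.5 with 100 mM NaCl, 1 mM MgCl2 and 0.5 nM [35S]GTPγS, then 5 min more with 0.1–10 μM compound. Gαo was immunoprecipitated and bound radioactivity counted by scintillation.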

[3] = FLNA-binding compound 0.01 μM, read-out: Percent Binding Inhibition
[4] = FLNA-binding compound 0.1 μM, read-out: Percent Binding Inhibition
[5] = FLNA-binding compound 1 μM, read-out: Percent Binding Inhibition
[6] = 0.1 μM compound relative to DAMGO
[7] = 1 μM compound + BFNA relative to DAMGO + BFNA
[8] = 1 μM compound relative to DAMGO
[9] = read-out: Percent Binding Inhibition, FLNA-binding compound 0.01 μM
[10] = read-out: Percent Binding Inhibition, FLNA-binding compound 0.1 μM
[11] = read-out: Percent Binding Inhibition, FLNA-binding compound 1 μM
[12] = Series B, 0.1 μM compound, relative to DAMGO
[13] = Series B, 0.1 μM compound, [35S]GTPγS binding to Gαo, striatal membranes
[14] = Series B, 1 μM compound + 1 μM β-FNA
[15] = Series B, 1 μM compound + β-FNA, relative to DAMGO + BFNA
[16] = Series B, 1 μM compound, relative to DAMGO
[17] = Series B, 1 μM compound, [35S]GTPγS binding to Gαo, striatal membranes

| Compound | inhibition at 0.01 µM [1, 3] | inhibition at 0.1 µM [1, 4] | inhibition at 1 µM [1, 5] | MOR agonist activity ([35S]GTPγS binding), FLNA-Binding Compound as Agonist 0.1 μM ([2]; 0.1 μM compound) | % DAMGO (0.1 μM) [2, 6] | MOR agonist activity ([35S]GTPγS binding), FLNA-Binding Compound as Agonist 1 μM ([2]; 1 μM compound) | MOR agonist activity ([35S]GTPγS binding), FLNA-Binding Compound as Agonist 1 μM + BFNA [2] | % DAMGO + BFNA [2, 7] | % DAMGO (1 μM) [2, 8] | inhibition at 0.01 µM [1, 9] | inhibition at 0.1 µM [1, 10] | inhibition at 1 µM [1, 11] | % DAMGO (0.1 μM) [2, 12] | MOR agonist activity, percent [35S]GTPγS binding at the stated compound concentration [2, 13] | MOR agonist activity, percent [35S]GTPγS binding at the stated compound concentration [2, 14] | % DAMGO + BFNA [2, 15] | % DAMGO (1 μM) [2, 16] | MOR agonist activity, percent [35S]GTPγS binding at the stated compound concentration [2, 17] | other results |
| --- | --- | --- | --- | --- | --- | --- | --- | --- | --- | --- | --- | --- | --- | --- | --- | --- | --- | --- | --- |
| CC1CCC(C(C)C)C(OCC(O)CN2CCN(CCN3CCCCC3)CC2)C1 (stereo not drawn) [Compound A0031] | 40.8% | 47.6% | 52.9% | 178.2% | 100.9% | 297.0% | 150.9% | 573.8% | 116.8% | – | – | – | – | – | – | – | – | – | – |
| COc1cc(F)ccc1C(=O)CC1c2c(cc3c(c2OC)OCO3)CC[N+]1(C)C (stereo not drawn) [Compound B0007] | – | – | – | – | – | – | – | – | – | 43.6% | 53.1% | 57.3% | 95.3% | 168.3% | 64.5% | 98.2% | 86.1% | 223.3% | – |
| CC1CCC(C(C)C)C(OCC(O)CN2CCN(C)CC2)C1 (stereo not drawn) [Compound A0009] | 26.4% | 37.8% | 38.9% | 70.2% | 39.8% | 126.4% | 93.9% | 142.9% | 48.7% | – | – | – | – | – | – | – | – | – | – |
| COc1ccccc1CC(O)CC1c2c(cc3c(c2OC)OCO3)CCN1C (stereo not drawn) [Compound B0030] | 47% | 50.5% | 57.6% | – | – | – | – | – | – | – | – | – | 62.6% | 107.2% | 90.1% | 172.9% | 103.4% | 276.1% | – |
| COc1ccc(N2CCN(CC(O)COC3CC(C)CCC3C(C)C)CC2)c(OC)c1 (stereo not drawn) [Compound A0012] | – | – | – | 149.3% | 99.9% | 185.7% | 122.4% | 461.9% | 80.7% | 39.7% | 49.6% | 54.4% | – | – | – | – | – | – | – |
| COc1c2c(cc3c1C(CC(=O)CCc1ccc(Cl)cc1)[N+](C)(C)CC3)OCO2 (stereo not drawn) [Compound B0017] | – | – | – | – | – | – | – | – | – | 28.3% | 36.6% | 44.6% | 58.9% | 99.6% | 49.6% | 75.2% | 45.6% | 122.0% | – |
| CC1CCC(C(C)C)C(OCC(O)CN2CCOc3ccccc32)C1 (stereo not drawn) [Compound A0066] | – | – | – | 151.9% | 88.3% | 195.6% | 59.2% | 171.6% | 89.0% | – | – | – | – | – | – | – | – | – | Percent Binding Inhibition ([1]; FLNA-binding compound 0.01 μM): 36.7%; Percent Binding Inhibition ([1]; FLNA-binding compound 0.1 μM): 45.4%; Percent Binding Inhibition ([1]; FLNA-binding compound 1 μM): 53.7% |
| COc1cc(OC)cc(C(=O)CC2c3c(cc4c(c3OC)OCO4)CC[N+]2(C)C)c1 (stereo not drawn) [Compound B0035] | – | – | – | – | – | – | – | – | – | 45.4% | 44.7% | 51% | 109.8% | 188.0% | 74.2% | 142.4% | 93.2% | 248.7% | – |
